Active and inactive are the calls of the source. No cut-off for these calls is given here.
Each compound was assayed on Detroit 551 (assay: Cytotoxicity against human Detroit 551 cells assessed as reduction in cell viability by MTS assay).
Assay type: toxicity, cell-based

| SMILES | Activity |
| --- | --- |
| O=C(Nc1ccc(OC(F)(F)F)cc1)Nc1c[nH]c2ccccc12 | Non-Toxic |
| Cc1ccc(NC(=O)Nc2c[nH]c3ccccc23)cc1Cl | Non-Toxic |
| CC(C)c1ccc(NC(=O)Nc2c[nH]c3ccccc23)cc1 | Non-Toxic |
| O=C(Nc1ccc(Cl)cc1)Nc1c[nH]c2ccccc12 | Non-Toxic |
| O=C(Nc1ccc(C(F)(F)F)cc1)Nc1c[nH]c2ccccc12 | Non-Toxic |
| CCc1ccc(NC(=O)Nc2c[nH]c3ccccc23)cc1 | Non-Toxic |

What follows are compounds tested against Stimulator of interferon genes protein (Homo sapiens) (UniProt Q86WV6) (assay: Inhibition of STING in human THP1-Dual KI-hSTING-R232 cells assessed as cGAMP-induced IRF luciferase expression at 1 uM incubated for 2 hrs by QUANTI-Luc reagent based luciferase reporter assay).
Assay type: cell-based

Chain of Stimulator of interferon genes protein (Homo sapiens) (Q86WV6 whole entry): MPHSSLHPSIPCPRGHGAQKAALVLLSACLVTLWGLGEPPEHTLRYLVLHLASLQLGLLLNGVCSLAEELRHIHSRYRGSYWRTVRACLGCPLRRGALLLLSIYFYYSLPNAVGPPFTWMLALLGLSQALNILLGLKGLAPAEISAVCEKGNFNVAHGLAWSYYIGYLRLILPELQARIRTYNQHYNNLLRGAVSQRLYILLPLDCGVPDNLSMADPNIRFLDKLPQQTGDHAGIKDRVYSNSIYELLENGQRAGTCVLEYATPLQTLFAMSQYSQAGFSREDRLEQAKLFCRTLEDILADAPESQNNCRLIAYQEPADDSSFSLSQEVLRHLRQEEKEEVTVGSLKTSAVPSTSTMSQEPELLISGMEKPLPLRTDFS

| inhibition | SMILES |
| --- | --- |
| Active | Cc1cccc(NC(=O)Nc2c[nH]c3ccccc23)c1 |
| inactive | NC(=O)c1ccc(NC(=O)Nc2c[nH]c3ccccc23)cc1 |
| inactive | O=C(Nc1ccc2c(c1)OCCO2)Nc1c[nH]c2ccccc12 |
| Active | O=C(Nc1cccc(F)c1)Nc1c[nH]c2ccccc12 |
| inactive | Cc1ccc(NC(=O)Nc2c[nH]c3ccccc23)c(C)c1 |
| inactive | CCc1ccccc1NC(=O)Nc1c[nH]c2ccccc12 |
| inactive | CC(=O)c1ccc(NC(=O)Nc2cn(C)c3ccccc23)cc1 |
| inactive | Cn1cc(NC(=O)Nc2ccc(F)c(Cl)c2)c2ccccc21 |
| Active | O=C(Nc1cccc(Cl)c1)Nc1c[nH]c2ccccc12 |
| inactive | Cc1ccccc1NC(=O)Nc1c[nH]c2ccccc12 |
| inactive | Cc1cccc(NC(=O)Nc2c[nH]c3ccccc23)c1C |
| inactive | CCc1ccc(NC(=O)Nc2cn(C)c3ccccc23)cc1 |
| inactive | Cn1cc(NC(=O)Nc2ccc(OC(F)(F)F)cc2)c2ccccc21 |
| inactive | COc1ccc(NC(=O)Nc2c[nH]c3ccccc23)cc1 |
| inactive | O=C(Nc1c[nH]c2ccccc12)N1Cc2ccccc2C1 |
| inactive | Cn1cc(NC(=O)Nc2ccc(F)c(F)c2)c2ccccc21 |
| inactive | CN(C(=O)Nc1c[nH]c2ccccc12)c1ccccc1 |
| inactive | CN(C)c1ccc(NC(=O)Nc2c[nH]c3ccccc23)cc1 |
| inactive | Cn1cc(NC(=O)Nc2ccc(C(N)=O)cc2)c2ccccc21 |
| Active | COc1cccc(NC(=O)Nc2c[nH]c3ccccc23)c1 |

Reference: ChEMBL document CHEMBL5390249, “Analysis of structure-activity relationship of indol-3-yl-N-phenylcarbamic amides as potent STING inhibitors” (Bioorg Med Chem, 2023)
